Data: patent US20150265703A1, “COMBINATION THERAPY OF AN AFUCOSYLATED CD20 ANTIBODY WITH A mTOR INHIBITOR” (ROCHE GLYCART AG, priority 2010, published 2015)

Test system: SU-DHL-4 human lymphoma cells
Test: Tumor growth inhibition study in vivo, SC SU-DHL-4 tumors in SCID beige mice
Settings: for SU-DHL-4 tumors growth in comparison with tumors from vehicle-treated animals: 3 mg/kg, single agent; for T/C (%) values of the treatment groups compared to the vehicle group: day 46 after tumor cell injection, GA101 3 mg/kg IV Q7Dx4, Torisel 3 mg/kg IP Q3Dx10, SC SU-DHL-4 tumors, SCID beige mice
Protocol: Test Agents Type II anti-CD20 antibody B-HH6-B-KV1 GE (=humanized B-Ly1, glycoengineered B-HH6-B-KV1=GA101; see WO 2005/044859 and WO 2007/031875) was provided from GlycArt, Schlieren, Switzerland. Antibody buffer included histidine, trehalose and polysorbate 20. Antibody solution was diluted appropriately in PBS from stock for prior injections. Temsirolimus (Torisel®, 25 mg/ml, Wyeth Pharmaceuticals) was supplied by Oncodesign and stored at +4° C. protected from light according to the supplier's instructions.
SU-DHL-4 human lymphoma cells (DSMZ NO.: ACC 495) were grown as a suspension at 37° C. in a humidified atmosphere (5% CO2, 95% air). The culture medium was RPMI 1640 containing 2 mM L-glutamine (Ref BE12-702F, Batch N° 8MB0056, Lonza, Verviers, Belgium) and supplemented with 10% fetal bovine serum (Ref 3302, Batch N^o P282005, Lonza). The cells were counted in a hemocytometer and their viability was assessed by 0.25% trypan blue exclusion.
Female CB17 SCID beige mice, 5-6 week-old and weighing 16-20 g, were obtained from Charles River (L'Arbresle, France).
Ten millions (10^7) SU-DHL-4 tumor cells in 100 μl of PBS with matrigel (50:50, BD Biosciences, France) were subcutaneously (SC) injected into the right flank of 52 female SCID beige mice.
All study data, including animal body weight measurements, tumor volume, clinical and mortality records, and drug treatment management were managed using Vivo Manager® software (Biosystemes, Dijon, France).
Isoflurane Forene (Minerve, Bondoufle, France) was used to anaesthetize the animals before SC inoculation of tumor cells, IV injection of compounds and sacrifice. Mortality, clinical signs and behaviour were recorded every day. Animal body weights and tumor volumes were monitored and recorded twice a week.
When the tumors reached a mean volume of 173±95 mm^3, 40 out of 52 tumor bearing […] mice were distributed in 4 groups of 10 mice. The treatment schedule was chosen as following: • Mice from group 1 received once weekly IV bolus injection of vehicle for 4 consecutive weeks (Q7Dx4). • Mice from group 2 received once weekly IV bolus injection of anti-CD20 antibody GA101 (B-HH6-B-KV1 GE) at 3 mg/kg/inj for 4 consecutive weeks (Q7Dx4). • Mice from group 3 received once daily IP injection of Torisel® at 3 mg/kg/inj with a 3-day interval between each dosing and a total of 10 injections (Q3Dx10). • Mice from group 4 received once weekly IV bolus injection of anti-CD20 antibody GA101 (B-HH6-B-KV1 GE) at 3 mg/kg/inj for 4 consecutive weeks (Q7Dx4) in combination with once daily IP injection of Torisel® at 3 mg/kg/inj with a 3-day interval between each dosing and a total of 10 injections (Q3Dx10)].
The antitumor efficacy of anti-CD20 antibody GA101 (B-HH6-B-KV1 GE) alone and in combination with Torisel® was examined. […]

CO[C@H]1C[C@@H]2CC[C@@H](C)[C@@](O)(O2)C(=O)C(=O)N2CCCC[C@H]2C(=O)O[C@H]([C@H](C)C[C@@H]2CC[C@@H](OC(=O)C(C)(CO)CO)[C@H](OC)C2)CC(=O)[C@H](C)/C=C(\C)[C@@H](O)[C@@H](OC)C(=O)[C@H](C)C[C@H](C)/C=C/C=C/C=C/1C [Torisel, Temsirolimus]
SU-DHL-4 tumors growth in comparison with tumors from vehicle-treated animals: partially delayed | T/C (%) values of the treatment groups compared to the vehicle group: 60%

GA101: Type II anti-CD20 antibody, humanized B-Ly1, glycoengineered B-HH6-B-KV1 (VH SEQ ID NO:7, VL SEQ ID NO:20), afucosylated IgG1
SU-DHL-4 tumors growth in comparison with tumors from vehicle-treated animals: partially delayed | T/C (%) values of the treatment groups compared to the vehicle group: 51%
